# Test results published in ChEMBL document CHEMBL3885861, “Open TG-GATES”.
# Species on record: Rattus norvegicus
# Assay: Open TG-GATES - Regimen: Daily Repeat
# Format: toxicity, organism-based, Sprague-Dawley
# Parameters: regimen Daily Repeat, gender Male, age 6 weeks
# Conditions: in vivo, po, 1000 mg/kg, route gavage, dose level High; for APTT / Bas / Eos / Fbg / Hb / Ht / Lym / MCH / MCHC / MCV / Mono / Neu / PT / Plat / RBC / Ret / WBC: tissue Blood; for KIDNEY_L / KIDNEY_R / KIDNEY_TOTAL: tissue Kidney; for LIVER: tissue Liver; for A/G / ALP / ALT / AST / BUN / CRE / Ca / Cl / DBIL / GLC / IP / K / LDH / Na / PL / RALB / TBIL / TC / TG / TP / gamma-GTP: tissue Plasma
smiles,measurement,setting,value
C[C@H]1O[C@H](O[C@H]2[C@H](O)[C@@H](O)[C@@H](O[C@H]3[C@H](O)[C@@H](O)C(O)O[C@@H]3CO)O[C@@H]2CO)[C@H](O)[C@@H](O)[C@@H]1N[C@H]1C=C(CO)[C@@H](O)[C@H](O)[C@H]1O (some centres not stated) [ACARBOSE],TERMINAL_BW,"72 h, time 3 day",230.8 g
same,APTT,"72 h, time 3 day",17.8 s
same,Bas,"72 h, time 3 day",0%
same,Eos,"72 h, time 3 day",1%
same,Fbg,"72 h, time 3 day",308.6 mg/dL
same,Hb,"72 h, time 3 day",13.5 g/dL
same,Ht,"72 h, time 3 day",40.6%
same,Lym,"72 h, time 3 day",75.8%
same,MCH,"72 h, time 3 day",21.2 pg
same,MCHC,"72 h, time 3 day",33.3%
same,MCV,"72 h, time 3 day",63.7 fL
same,Mono,"72 h, time 3 day",2.8%
same,Neu,"72 h, time 3 day",19.6%
same,PT,"72 h, time 3 day",13 s
same,Plat,"72 h, time 3 day",118.2 x10_4/uL
same,RBC,"72 h, time 3 day",638.2 x10_4/ul
same,Ret,"72 h, time 3 day",6.9%
same,WBC,"72 h, time 3 day",90.6 x10_2/uL
same,KIDNEY_L,"72 h, time 3 day",1 g
same,KIDNEY_R,"72 h, time 3 day",1 g
same,KIDNEY_TOTAL,"72 h, time 3 day",2 g
same,LIVER,"72 h, time 3 day",10.9 g
same,A/G,"72 h, time 3 day",0.9
same,ALP,"72 h, time 3 day",1494.4 IU/L
same,ALT,"72 h, time 3 day",46.8 IU/L
same,AST,"72 h, time 3 day",74 IU/L
same,BUN,"72 h, time 3 day",13.4 mg/dL
same,CRE,"72 h, time 3 day",0.2 mg/dL
same,Ca,"72 h, time 3 day",10.7 mg/dL
same,Cl,"72 h, time 3 day",104.2 meq/L
same,DBIL,"72 h, time 3 day",0.012 mg/dL
same,GLC,"72 h, time 3 day",169.8 mg/dL
same,IP,"72 h, time 3 day",7.7 mg/dL
same,K,"72 h, time 3 day",3.9 meq/L
same,LDH,"72 h, time 3 day",95.2 IU/L
same,Na,"72 h, time 3 day",140 meq/L
same,PL,"72 h, time 3 day",140 mg/dL
same,RALB,"72 h, time 3 day",2.6 g/dL
same,TBIL,"72 h, time 3 day",0.062 mg/dL
same,TC,"72 h, time 3 day",75.2 mg/dL
same,TG,"72 h, time 3 day",87 mg/dL
same,TP,"72 h, time 3 day",5.5 g/dL
same,gamma-GTP,"72 h, time 3 day",1 IU/L
same,TERMINAL_BW,"[…], time 7 day",275.6 g
same,TERMINAL_BW,"[…], time 14 day",312 g
same,TERMINAL_BW,"[…], time 28 day",399.3 g
same,APTT,"[…], time 7 day",16.9 s
same,Bas,"[…], time 7 day",0%
same,Eos,"[…], time 7 day",1%
same,Fbg,"[…], time 7 day",302.6 mg/dL
same,Hb,"[…], time 7 day",13.6 g/dL
same,Ht,"[…], time 7 day",40.4%
same,Lym,"[…], time 7 day",79.8%
same,MCH,"[…], time 7 day",20.9 pg
same,MCHC,"[…], time 7 day",33.7%
same,MCV,"[…], time 7 day",62.2 fL
same,Mono,"[…], time 7 day",2.2%
same,Neu,"[…], time 7 day",16.2%
same,PT,"[…], time 7 day",13.1 s
same,Plat,"[…], time 7 day",119.8 x10_4/uL
same,RBC,"[…], time 7 day",649.4 x10_4/ul
same,Ret,"[…], time 7 day",6.1%
same,WBC,"[…], time 7 day",120 x10_2/uL
same,APTT,"[…], time 14 day",21 s
same,Bas,"[…], time 14 day",0%
same,Eos,"[…], time 14 day",1%
same,Fbg,"[…], time 14 day",297 mg/dL
same,Hb,"[…], time 14 day",14.7 g/dL
same,Ht,"[…], time 14 day",43.8%
same,Lym,"[…], time 14 day",79%
same,MCH,"[…], time 14 day",20.6 pg
same,MCHC,"[…], time 14 day",33.5%
same,MCV,"[…], time 14 day",61.4 fL
same,Mono,"[…], time 14 day",1.8%
same,Neu,"[…], time 14 day",17.4%
same,PT,"[…], time 14 day",13.3 s
same,Plat,"[…], time 14 day",135 x10_4/uL
same,RBC,"[…], time 14 day",713.4 x10_4/ul
same,Ret,"[…], time 14 day",4.4%
same,WBC,"[…], time 14 day",106.9 x10_2/uL
same,APTT,"[…], time 28 day",17.7 s
same,Bas,"[…], time 28 day",0.4%
same,Eos,"[…], time 28 day",1.2%
same,Fbg,"[…], time 28 day",283 mg/dL
same,Hb,"[…], time 28 day",16.2 g/dL
same,Ht,"[…], time 28 day",47.2%
same,Lym,"[…], time 28 day",83.6%
same,MCH,"[…], time 28 day",19.6 pg
same,MCHC,"[…], time 28 day",34.4%
same,MCV,"[…], time 28 day",57 fL
same,Mono,"[…], time 28 day",2%
same,Neu,"[…], time 28 day",12.6%
same,PT,"[…], time 28 day",13.3 s
same,Plat,"[…], time 28 day",102.8 x10_4/uL
same,RBC,"[…], time 28 day",829 x10_4/ul
same,Ret,"[…], time 28 day",2.2%
same,WBC,"[…], time 28 day",110.1 x10_2/uL
same,KIDNEY_L,"[…], time 7 day",1.1 g
same,KIDNEY_R,"[…], time 7 day",1.1 g
same,KIDNEY_TOTAL,"[…], time 7 day",2.2 g
same,KIDNEY_L,"[…], time 14 day",1.2 g
same,KIDNEY_R,"[…], time 14 day",1.2 g
same,KIDNEY_TOTAL,"[…], time 14 day",2.4 g
same,KIDNEY_L,"[…], time 28 day",1.4 g
same,KIDNEY_R,"[…], time 28 day",1.3 g
same,KIDNEY_TOTAL,"[…], time 28 day",2.7 g
same,LIVER,"[…], time 7 day",13.9 g
same,LIVER,"[…], time 14 day",13.4 g
same,LIVER,"[…], time 28 day",16.6 g
same,A/G,"[…], time 7 day",0.9
same,ALP,"[…], time 7 day",1346.8 IU/L
same,ALT,"[…], time 7 day",41.2 IU/L
same,AST,"[…], time 7 day",66 IU/L
same,BUN,"[…], time 7 day",16.6 mg/dL
same,CRE,"[…], time 7 day",0.2 mg/dL
same,Ca,"[…], time 7 day",10.9 mg/dL
same,Cl,"[…], time 7 day",103.2 meq/L
same,DBIL,"[…], time 7 day",0.012 mg/dL
same,GLC,"[…], time 7 day",182.4 mg/dL
same,IP,"[…], time 7 day",7.3 mg/dL
same,K,"[…], time 7 day",3.9 meq/L
same,LDH,"[…], time 7 day",88.4 IU/L
same,Na,"[…], time 7 day",141.4 meq/L
same,PL,"[…], time 7 day",140.2 mg/dL
same,RALB,"[…], time 7 day",2.6 g/dL
same,TBIL,"[…], time 7 day",0.048 mg/dL
same,TC,"[…], time 7 day",66.4 mg/dL
same,TG,"[…], time 7 day",134.8 mg/dL
same,TP,"[…], time 7 day",5.7 g/dL
same,gamma-GTP,"[…], time 7 day",1 IU/L
same,A/G,"[…], time 14 day",0.8
same,ALP,"[…], time 14 day",1516 IU/L
same,ALT,"[…], time 14 day",40 IU/L
same,AST,"[…], time 14 day",69.8 IU/L
same,BUN,"[…], time 14 day",17.4 mg/dL
same,CRE,"[…], time 14 day",0.3 mg/dL
same,Ca,"[…], time 14 day",10.7 mg/dL
same,Cl,"[…], time 14 day",105.2 meq/L
same,DBIL,"[…], time 14 day",0.006 mg/dL
same,GLC,"[…], time 14 day",184 mg/dL
same,IP,"[…], time 14 day",7 mg/dL
same,K,"[…], time 14 day",4.1 meq/L
same,LDH,"[…], time 14 day",88.8 IU/L
same,Na,"[…], time 14 day",142.2 meq/L
same,PL,"[…], time 14 day",138.2 mg/dL
same,RALB,"[…], time 14 day",2.7 g/dL
same,TBIL,"[…], time 14 day",0.046 mg/dL
same,TC,"[…], time 14 day",69.8 mg/dL
same,TG,"[…], time 14 day",89 mg/dL
same,TP,"[…], time 14 day",5.8 g/dL
same,gamma-GTP,"[…], time 14 day",1 IU/L
same,A/G,"[…], time 28 day",0.8
same,ALP,"[…], time 28 day",1153.4 IU/L
same,ALT,"[…], time 28 day",35.4 IU/L
same,AST,"[…], time 28 day",63.6 IU/L
same,BUN,"[…], time 28 day",18.4 mg/dL
same,CRE,"[…], time 28 day",0.3 mg/dL
same,Ca,"[…], time 28 day",10.8 mg/dL
same,Cl,"[…], time 28 day",104.6 meq/L
same,DBIL,"[…], time 28 day",0.014 mg/dL
same,GLC,"[…], time 28 day",180.2 mg/dL
same,IP,"[…], time 28 day",6.5 mg/dL
same,K,"[…], time 28 day",4 meq/L
same,LDH,"[…], time 28 day",72.6 IU/L
same,Na,"[…], time 28 day",142 meq/L
same,PL,"[…], time 28 day",151.8 mg/dL
same,RALB,"[…], time 28 day",2.8 g/dL
same,TBIL,"[…], time 28 day",0.058 mg/dL
same,TC,"[…], time 28 day",73.4 mg/dL
same,TG,"[…], time 28 day",166.2 mg/dL
same,TP,"[…], time 28 day",6.2 g/dL
same,gamma-GTP,"[…], time 28 day",1.2 IU/L
